# Legend:
# [1] = Dynamic vapor sorption (DVS) humidity cycling, solid analysed by XRPD; format: physicochemical; settings: start 50% relative humidity, up to 90%, down to 0%, 10% steps, cycle repeated 3 times
# Description: (§1) XRPD patterns are obtained using a Bruker D8 Advance equipped with a Cu Kα radiation source (λ=1.54 Å), a 9-position sample holder and a LYNXEYE super speed detector. Samples are placed on zero-background, silicon plate holders for analysis. One skilled in the art would recognize that the ° 2θ values and the relative intensity values are generated by performing a peak search on the measured data and the d-spacing values are calculated by the instrument from the ° 2θ values using Bragg's equation. One skilled in the art would further recognize that the relative intensity for the measured peaks may vary as a result of sample preparation, orientation and instrument used, for example.
# In another embodiment, amorphous fedratinib diHCl is prepared by: • a) subjecting Form A of fedratinib diHCl to a dynamic vapor sorption method to yield amorphous fedratinib diHCl, wherein the dynamic vapor sorption method comprises exposing the Form A of fedratinib diHCl to a relative humidity of about 50% and adjusting the relative humidity to between about 0-90% with about a 10% increase or decrease in humidity at each step for 3 cycles.
# Form A of fedratinib diHCl is subjected to DVS with initial exposure to 50% relative humidity. The relative humidity is then increased to 90% with a 10% increase in humidity at each step. […]
# [2] = Retention of Form A on slurrying in multiple solvents (XRPD); format: physicochemical; settings: ~30 mg in 0.2 mL of each of water, ethanol, MTBE, IPA, IPAc, 3-methyl-1-butanol, toluene, anisole, acetone, THF, MEK, MIBK, DCM, 1,4-dioxane, 2-butanol, 2-methyl THF, isobutyl acetate, tert-butanol, methyl cyclohexane, CPME; slurried about 3 days at 20° C.
# Description: as §1
# In another embodiment, Form A of fedratinib diHCl is retained by producing a slurry. […]
smiles,measurement,setting,value
"Cc1cnc(Nc2ccc(OCCN3CCCC3)cc2)nc1Nc1cccc(S(=O)(=O)NC(C)(C)C)c1 [Form A of fedratinib diHCl, N-tert-butyl-3-[[5-methyl-2-[4-(2-pyrrolidin-1-ylethoxy)anilino]pyrimidin-4-yl]amino]benzenesulfonamide]",solid form by XRPD after DVS,[1],determined to be amorphous fedratinib diHCl
same,solid form by XRPD after slurry,[2],determined to be Form A of fedratinib diHCl
